Test results published in US20090209556A1, “SOLUBLE GUANYLATE CYCLASE ACTIVATORS” (priority 2007, published 2009).

Molecular target: T1, Human recombinant sGC enzyme (Homo sapiens, UniProt Q02108+Q02153)
T1 construct: purchased Axxora, LLC (San Diego, Calif.)
T1 sequence (Q02153 1-619): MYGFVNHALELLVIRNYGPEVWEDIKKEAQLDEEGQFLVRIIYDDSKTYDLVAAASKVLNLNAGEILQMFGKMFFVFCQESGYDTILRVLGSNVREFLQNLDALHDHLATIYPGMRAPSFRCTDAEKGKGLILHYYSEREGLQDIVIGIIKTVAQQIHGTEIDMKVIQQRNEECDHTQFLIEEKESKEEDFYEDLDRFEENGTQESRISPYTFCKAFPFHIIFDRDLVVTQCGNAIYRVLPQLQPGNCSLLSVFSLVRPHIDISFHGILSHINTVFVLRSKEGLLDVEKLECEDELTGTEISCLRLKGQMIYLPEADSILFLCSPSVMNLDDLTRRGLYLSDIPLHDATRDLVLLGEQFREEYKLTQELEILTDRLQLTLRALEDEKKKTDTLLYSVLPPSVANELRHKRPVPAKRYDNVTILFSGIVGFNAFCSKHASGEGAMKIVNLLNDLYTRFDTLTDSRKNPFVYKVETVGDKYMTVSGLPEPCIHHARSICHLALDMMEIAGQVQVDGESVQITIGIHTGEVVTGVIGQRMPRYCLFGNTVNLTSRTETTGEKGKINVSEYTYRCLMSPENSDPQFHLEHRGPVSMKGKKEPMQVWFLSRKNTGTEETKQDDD
T1 sequence (Q02108 1-690): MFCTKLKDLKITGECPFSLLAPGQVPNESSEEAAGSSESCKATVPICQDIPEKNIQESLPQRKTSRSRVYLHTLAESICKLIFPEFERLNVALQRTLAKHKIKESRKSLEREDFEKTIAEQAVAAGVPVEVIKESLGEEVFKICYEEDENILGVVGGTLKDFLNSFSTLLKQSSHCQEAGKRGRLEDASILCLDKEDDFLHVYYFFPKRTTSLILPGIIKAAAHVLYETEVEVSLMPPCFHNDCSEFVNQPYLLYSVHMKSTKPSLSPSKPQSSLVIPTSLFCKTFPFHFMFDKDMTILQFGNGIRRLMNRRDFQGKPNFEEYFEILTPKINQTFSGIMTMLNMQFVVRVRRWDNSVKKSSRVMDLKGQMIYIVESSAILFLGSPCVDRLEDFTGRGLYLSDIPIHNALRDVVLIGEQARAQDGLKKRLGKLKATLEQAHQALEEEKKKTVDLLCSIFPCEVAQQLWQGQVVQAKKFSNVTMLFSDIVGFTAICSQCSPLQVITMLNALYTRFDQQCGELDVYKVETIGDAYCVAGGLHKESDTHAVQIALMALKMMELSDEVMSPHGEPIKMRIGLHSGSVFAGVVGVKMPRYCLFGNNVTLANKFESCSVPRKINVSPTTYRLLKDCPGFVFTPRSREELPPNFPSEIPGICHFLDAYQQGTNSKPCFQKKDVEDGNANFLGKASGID
Test: Measurement of soluble guanylyl cyclase activation (enzyme-based), PCASA cell-free enzymatic assay, cGMP by HTRF
Format: biochemical
Conditions: purified sGC 0.1 ng, substrate GTP, 1 hr at 37° C.
Procedure: Measurement of Soluble Guanylyl Cyclase ([…]) Activation (Enzyme-Based)
Activities of test compounds against purified sGC were evaluated in PCASA assay which is a cell-free enzymatic assay.
Human recombinant sGC enzyme with greater than 95% purity was obtained from Axxora, LLC (San Diego, Calif.). Compounds were incubated with 0.1 ng of sGC enzyme in presence of its substrate GTP for 1 hr at 37° C. At the end of the incubation period, the reaction was stopped and the amount of cGMP generated was measured by an HTRF-based assay (CisBio, 62GN2PEC), which detects the displacement of a fluorophore-labeled cGMP from its specific antibody.
Inflection point, maximum % of activation, and EC50 were derived based on the plot of compound concentration vs % activation.

EC50: 1.7 nM
Compound: O=C(O)c1cnn(-c2cccc(-c3cc(Cl)ccc3OCc3ccc([C@H]4CC[C@H](C(F)(F)F)CC4)cc3)n2)c1C(F)(F)F [Example 9]
